Reference: paper PMC8847695 (Frontiers in Chemistry, 2022)

Key:
Type in all cases: binding
Details in all cases: 1 = hit, 0 = no hit
AAK1 (121-471) = AAK1 (121-471) (Homo sapiens, UniProt Q2M2I8); test: STD-NMR fragment screening, AAK1
Protocol: (§1) All fragments were stored at −20°C as solids in argon flushed glass bottles. For NMR screening, fragments were weighed and dissolved in DMSO-d6 to a stock concentration of 300 mM. Mother plates were prepared with a 100 mM concentration. From these plates, daughter plates were prepared with the fragments mixed in the plates to a concentration of 50 mM for each fragment. Daughter plates were opened a maximum of eight times. The plates were argon flushed and sealed with a HT121TS (HTA) and Foil Heat Seal (Biozym).
(§2) For long time measurements, like the protein ^1H NMR spectrum, the buffer exchange was performed twice to reduce residual buffer peaks. All experiments were performed on a Bruker Avance III HDX 700 instrument, equipped with a 5 mm Prodigy TCI cryo-probehead. For every protein, a standard ^1H NMR experiment with 1 k scans and water suppression through presaturation was performed. […] The on-resonance frequency, which was determined from the ^1H NMR spectra of the protein, was between 0.5 and 0.6 ppm; 40 ppm was used as the off-resonance frequency. For an interleaved acquisition of the on- and off-resonance, a pseudo-2D scheme was applied. The saturation was done by Gaussian pulses with a length of 50 ms and 60 dB of attenuation, with an interpulse delay of 1 ms leading to an excitation bandwidth of about 42 Hz. The screening was done with 16 scans of on- and off-resonance scans each, with a 3 s saturation time. The samples contained final concentrations of 20 µM protein, 10% (^V/V) DMSO-d6, and 1 mM of each of the two fragments. A ^1H-NMR experiment was performed for each compound to act as a reference spectrum in the STD experiments. All NMR experiments were carried out at 25°C.
(§3) Fifteen of these compounds contain the same halogen twice. No compound bears mixtures of different halogen atoms. Four proteins (AAK1, CAMK1G, IDO1, and DOT1L) were screened against this HEFLib using STD-NMR. A fragment was considered a hit if the peak intensity in the difference spectrum was three times higher than the local background noise. […] Chemical compatibility and peak complementarity were assured for these mixtures. Samples containing more than two fragments were avoided to minimize the possible target competition and to decrease the risk of fragment interactions. […] The ^1H reference NMR spectrum of the mixture is shown in red for comparison. […] As fragment mixtures can lead to competitive effects between their fragments, it is not advised to use the quantification of peak mixtures for hit ranking.

CAMK1G (1-320) = target: T1, CAMK1G (1-320) (Homo sapiens, UniProt Q96NX5); test: STD-NMR fragment screening, CAMK1G
T1 construct: made in house; host or cells: E. coli BL21 (DE3) pLysS
Protocol: as §1, §2, §3

IDO1 (1-435) = target: T2, IDO1 (1-435) (Homo sapiens, UniProt P14902); test: STD-NMR fragment screening, IDO1
T2 construct: His-tag of pET15b with TEV site (thrombin site replaced) (cleaved yes); made in house; host or cells: E. coli Rosetta 2 (DE3) pLysS
Protocol: as §1, §2, §3

DOT1L (1-416) = target: T3, DOT1L (1-416) (Homo sapiens, UniProt Q8TEK3); test: STD-NMR fragment screening, DOT1L
T3 construct: made in house; host or cells: E. coli BL21 (DE3) pLysS
Protocol: as §1, §2, §3

T1 sequence (Q96NX5 1-320): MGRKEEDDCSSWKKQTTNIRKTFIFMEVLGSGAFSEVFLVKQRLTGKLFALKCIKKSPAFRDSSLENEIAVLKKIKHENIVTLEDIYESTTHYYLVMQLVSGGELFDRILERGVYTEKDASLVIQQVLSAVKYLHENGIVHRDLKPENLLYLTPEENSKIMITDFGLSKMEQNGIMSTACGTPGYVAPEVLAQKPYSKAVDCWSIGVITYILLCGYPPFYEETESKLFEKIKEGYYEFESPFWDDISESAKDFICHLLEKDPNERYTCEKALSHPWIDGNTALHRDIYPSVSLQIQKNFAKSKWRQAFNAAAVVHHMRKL
T2 sequence (P14902 whole entry, the tested form may be a part): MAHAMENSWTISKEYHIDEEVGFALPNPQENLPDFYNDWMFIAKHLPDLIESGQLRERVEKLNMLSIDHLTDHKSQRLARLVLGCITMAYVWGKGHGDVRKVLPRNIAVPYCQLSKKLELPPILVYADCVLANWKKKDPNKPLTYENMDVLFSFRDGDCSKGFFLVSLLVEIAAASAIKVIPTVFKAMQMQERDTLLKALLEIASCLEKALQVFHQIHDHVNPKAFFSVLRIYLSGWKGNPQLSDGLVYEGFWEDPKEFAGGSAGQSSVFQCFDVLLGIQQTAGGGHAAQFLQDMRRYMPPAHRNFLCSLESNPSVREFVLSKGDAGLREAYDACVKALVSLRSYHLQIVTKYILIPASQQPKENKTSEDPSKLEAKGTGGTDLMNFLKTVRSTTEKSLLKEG
T3 sequence (Q8TEK3 1-416): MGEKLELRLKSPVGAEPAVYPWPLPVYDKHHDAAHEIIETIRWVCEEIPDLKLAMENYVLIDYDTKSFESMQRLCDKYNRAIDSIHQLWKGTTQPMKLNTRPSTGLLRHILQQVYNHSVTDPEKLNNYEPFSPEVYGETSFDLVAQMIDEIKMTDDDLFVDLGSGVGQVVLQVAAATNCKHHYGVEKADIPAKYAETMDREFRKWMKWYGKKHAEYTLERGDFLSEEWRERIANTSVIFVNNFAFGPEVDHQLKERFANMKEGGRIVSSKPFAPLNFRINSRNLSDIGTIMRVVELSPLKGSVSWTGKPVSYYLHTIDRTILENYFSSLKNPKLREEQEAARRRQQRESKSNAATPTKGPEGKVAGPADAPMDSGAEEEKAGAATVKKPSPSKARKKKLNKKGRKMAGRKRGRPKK
Sequence of AAK1 (121-471) (Q2M2I8 46-315 limits assumed): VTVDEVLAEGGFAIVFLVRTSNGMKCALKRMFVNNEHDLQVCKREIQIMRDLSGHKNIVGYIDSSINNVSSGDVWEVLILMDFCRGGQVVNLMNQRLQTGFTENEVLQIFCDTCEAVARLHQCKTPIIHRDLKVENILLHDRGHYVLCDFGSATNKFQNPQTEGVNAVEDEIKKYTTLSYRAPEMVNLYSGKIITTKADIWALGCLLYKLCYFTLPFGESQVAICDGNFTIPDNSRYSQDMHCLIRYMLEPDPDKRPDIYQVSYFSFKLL

| SMILES | AAK1 (STD-NMR hit flag) (AAK1 (121-471)) | CAMK1G (STD-NMR hit flag) (CAMK1G (1-320)) | IDO1 (STD-NMR hit flag) (IDO1 (1-435)) | DOT1L (STD-NMR hit flag) (DOT1L (1-416)) |
| --- | --- | --- | --- | --- |
| CCn1ncc(Br)c1C(N)=O [Fragment B02291150] | 1 | 1 | 0 | 0 |
| Cc1nn(CCN)cc1Cl [Fragment B02291152] | 0 | 0 | 0 | 0 |
| Oc1ccc(Cl)cc1/C=C/C12CN3CN(CN(C3)C1)C2 [Fragment B02291153] | 0 | 0 | 0 | 0 |
| O=C(O)c1nn(Cn2cccn2)cc1Cl [Fragment B02291154] | 0 | 0 | 0 | 0 |
| CCn1ncc(Br)c1CNC [Fragment B02291155] | 0 | 0 | 0 | 0 |
| Nc1nn(CC(=O)O)cc1Br [Fragment B02291156] | 0 | 0 | 0 | 0 |
| Brc1cccc2c1CNC2 [Fragment B02291212] | 0 | 0 | 0 | 0 |
| CS(=O)(=O)c1ccc(Cl)c(S(C)(=O)=O)c1 [Fragment B02291213] | 0 | 0 | 0 | 0 |
| Cn1nc(C(F)(F)F)c(CO)c1Cl [Fragment B02291214] | 0 | 0 | 0 | 0 |
| Cn1c2nc(Cl)nc-2c(O)n(C)c1=O [Fragment B02291216] | 1 | 1 | 1 | 0 |
| Nc1c(Cl)ccc2nonc12 [Fragment B02291217] | 1 | 0 | 0 | 0 |
| Cc1c(Cl)c(C(=O)O)nn1C [Fragment B02291218] | 0 | 0 | 0 | 0 |
| Nc1ncc(C(F)(F)F)cc1Cl [Fragment B02291219] | 1 | 1 | 0 | 0 |
| O=C(O)c1cc(Cl)c[nH]1 [Fragment B02291221] | 0 | 0 | 0 | 0 |
| NC(=O)c1cc2c(nc1Cl)CCC2 [Fragment B02291222] | 0 | 0 | 0 | 0 |
| CS(=O)(=O)c1ncc(Cl)c(C(=O)O)n1 [Fragment B02291223] | 0 | 0 | 0 | 0 |
| Clc1ncccn1 [Fragment B02291224] | 0 | 0 | 0 | 0 |
| CCOC(Cn1cc(Cl)cn1)OCC [Fragment B02291225] | 0 | 0 | 1 | 0 |
| NC1CCSc2ccc(Cl)cc21 (centres unmarked) [Fragment B02291226] | 0 | 0 | 0 | 0 |
| Cc1ccc(C(N)=O)c(Cl)n1 [Fragment B02291227] | 1 | 0 | 0 | 0 |
